Assay results published in ChEMBL document CHEMBL1130438, “The Gif system as a tool in medicinal chemistry: The oxidation of Sch 57726 under GoAggIII conditions” (Bioorg Med Chem Lett, 1997).

Tests used:
Phosphodiesterase 1 = Phosphodiesterase 1 (Bos taurus, UniProt Q01061+P14100); assay: Inhibition of bovine aorta phosphodiesterase 1; format: protein assay
[1] = biological target: cGMP-dependent 3',5'-cyclic phosphodiesterase (Homo sapiens, UniProt O00408); assay: Inhibition of phosphodiesterase 2
Phosphodiesterase 3B = Phosphodiesterase 3B (Bos taurus, UniProt E1BN64); assay: Inhibition of bovine heart phosphodiesterase 3
Phosphodiesterase 4 = Phosphodiesterase 4 (Homo sapiens, UniProt P27815+Q08499+Q07343+Q08493); assay: Inhibition of phosphodiesterase 4; format: protein assay
[2] = biological target: cGMP-specific 3',5'-cyclic phosphodiesterase (Bos taurus, UniProt Q28156); assay: Inhibition of bovine lung phosphodiesterase 5

Chain of Phosphodiesterase 3B (E1BN64 whole entry): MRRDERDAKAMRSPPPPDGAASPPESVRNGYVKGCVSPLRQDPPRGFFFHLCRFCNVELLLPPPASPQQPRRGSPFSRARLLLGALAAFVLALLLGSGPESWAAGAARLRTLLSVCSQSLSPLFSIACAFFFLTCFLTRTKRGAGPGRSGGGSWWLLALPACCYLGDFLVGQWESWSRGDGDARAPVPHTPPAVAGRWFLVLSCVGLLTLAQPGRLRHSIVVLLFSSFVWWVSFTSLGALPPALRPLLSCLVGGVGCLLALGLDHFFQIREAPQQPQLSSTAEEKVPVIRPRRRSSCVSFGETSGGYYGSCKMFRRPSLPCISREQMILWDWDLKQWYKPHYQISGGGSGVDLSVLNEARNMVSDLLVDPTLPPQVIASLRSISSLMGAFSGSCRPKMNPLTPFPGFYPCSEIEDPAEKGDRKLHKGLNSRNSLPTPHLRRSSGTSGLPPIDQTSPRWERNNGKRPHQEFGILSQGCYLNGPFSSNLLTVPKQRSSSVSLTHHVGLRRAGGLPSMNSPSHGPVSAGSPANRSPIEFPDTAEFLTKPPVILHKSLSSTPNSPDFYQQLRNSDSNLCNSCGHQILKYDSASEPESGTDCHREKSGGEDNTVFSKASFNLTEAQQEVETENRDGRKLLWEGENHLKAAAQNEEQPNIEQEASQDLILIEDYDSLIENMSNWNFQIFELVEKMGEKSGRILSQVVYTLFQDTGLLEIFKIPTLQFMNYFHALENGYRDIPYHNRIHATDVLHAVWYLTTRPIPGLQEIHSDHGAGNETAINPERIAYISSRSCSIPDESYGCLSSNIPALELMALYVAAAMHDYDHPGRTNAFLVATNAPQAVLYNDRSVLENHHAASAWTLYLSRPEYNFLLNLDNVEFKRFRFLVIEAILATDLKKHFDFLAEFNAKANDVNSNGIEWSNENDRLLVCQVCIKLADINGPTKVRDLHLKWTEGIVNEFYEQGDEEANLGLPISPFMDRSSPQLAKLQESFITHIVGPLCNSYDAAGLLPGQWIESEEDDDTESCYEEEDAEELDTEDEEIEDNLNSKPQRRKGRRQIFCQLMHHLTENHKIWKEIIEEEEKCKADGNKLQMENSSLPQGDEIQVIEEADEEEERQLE
Chain of cGMP-dependent 3',5'-cyclic phosphodiesterase (O00408 whole entry): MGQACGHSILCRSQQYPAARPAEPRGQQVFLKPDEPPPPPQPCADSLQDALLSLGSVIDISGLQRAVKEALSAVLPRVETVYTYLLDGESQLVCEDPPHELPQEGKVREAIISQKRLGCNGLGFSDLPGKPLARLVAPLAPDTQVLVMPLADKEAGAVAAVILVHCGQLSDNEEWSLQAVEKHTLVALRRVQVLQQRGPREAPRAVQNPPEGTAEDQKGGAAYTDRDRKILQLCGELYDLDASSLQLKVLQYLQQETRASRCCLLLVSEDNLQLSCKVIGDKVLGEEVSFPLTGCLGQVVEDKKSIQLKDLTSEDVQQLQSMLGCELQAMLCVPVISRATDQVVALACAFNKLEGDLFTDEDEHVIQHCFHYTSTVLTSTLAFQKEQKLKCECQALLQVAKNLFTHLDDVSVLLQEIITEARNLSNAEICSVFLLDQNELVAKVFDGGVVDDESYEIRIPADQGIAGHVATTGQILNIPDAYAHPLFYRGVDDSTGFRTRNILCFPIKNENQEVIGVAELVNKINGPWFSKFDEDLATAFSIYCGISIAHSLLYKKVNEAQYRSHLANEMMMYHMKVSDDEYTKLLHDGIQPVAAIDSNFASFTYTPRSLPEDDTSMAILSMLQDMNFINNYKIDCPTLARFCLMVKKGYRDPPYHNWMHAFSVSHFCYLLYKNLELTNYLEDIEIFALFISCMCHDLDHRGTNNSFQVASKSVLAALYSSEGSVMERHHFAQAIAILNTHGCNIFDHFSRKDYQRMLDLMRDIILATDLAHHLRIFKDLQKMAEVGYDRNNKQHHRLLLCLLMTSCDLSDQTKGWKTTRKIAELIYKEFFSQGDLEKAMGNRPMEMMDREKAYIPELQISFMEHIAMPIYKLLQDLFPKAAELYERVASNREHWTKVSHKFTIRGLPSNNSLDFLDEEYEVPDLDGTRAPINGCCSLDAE

IC50 (Phosphodiesterase 1): 110 nM | IC50 [1]: 17000 nM | IC50 (Phosphodiesterase 3B): > 100000 nM | IC50 (Phosphodiesterase 4): 2200 nM | IC50 [2]: 190 nM
SMILES: CN1C(=O)c2c(nc(-c3ccc(C4CCCCC4)cc3)n2Cc2ccccc2)N2CC3(CCCC3)N=C12
